Source: patent publication US20260216164A1, “INDOLE COMPOUND DECOMPOSING IKZF2, AND USE THEREOF” (KOREA RESEARCH INSTITUTE OF CHEMICAL TECHNOLOGY, priority 2023, published 2026)

Target: Helios (IKZF2) (Homo sapiens, UniProt Q96SW2+Q9UKS7)
Test: Screening of Helios protein degraders using Nano-Glo HiBiT cell line (HiBiT-IKZF2)
Type: cell-based
Conditions: for remaining activity at 10 µM: compound 10 μM, read-out: HiBiT-IKZF2 Residual amount of Helios (%) 10 μM; for remaining activity at 10 µM / remaining activity at 1 µM: 6 hours, HiBiT-Helios knock-in Jurkat cells; for remaining activity at 1 µM: compound 1 μM, read-out: HiBiT-IKZF2 Residual amount of Helios (%) 1 μM
Procedure: To observe intracellular degradation of Helios, the Nano-Glo HiBiT detection system (Promega) was employed. […] The cells expressing Helios fused with HiBiT were validated using the Nano-Glo HiBiT detection system (Promega) according to a predetermined protocol, isolated as single cells, and cultured in complete medium to establish a monoclonal cell line.
After 6 hours, the Nano-Glo HiBiT detection reagent was added to each well in an equal volume to the cell culture medium and incubated at room temperature for 10 minutes. Following incubation, the HiBiT luminescence signal was measured using a microplate reader (Perkin Elmer).

Chain of Helios (IKZF2) (Q9UKS7 whole entry): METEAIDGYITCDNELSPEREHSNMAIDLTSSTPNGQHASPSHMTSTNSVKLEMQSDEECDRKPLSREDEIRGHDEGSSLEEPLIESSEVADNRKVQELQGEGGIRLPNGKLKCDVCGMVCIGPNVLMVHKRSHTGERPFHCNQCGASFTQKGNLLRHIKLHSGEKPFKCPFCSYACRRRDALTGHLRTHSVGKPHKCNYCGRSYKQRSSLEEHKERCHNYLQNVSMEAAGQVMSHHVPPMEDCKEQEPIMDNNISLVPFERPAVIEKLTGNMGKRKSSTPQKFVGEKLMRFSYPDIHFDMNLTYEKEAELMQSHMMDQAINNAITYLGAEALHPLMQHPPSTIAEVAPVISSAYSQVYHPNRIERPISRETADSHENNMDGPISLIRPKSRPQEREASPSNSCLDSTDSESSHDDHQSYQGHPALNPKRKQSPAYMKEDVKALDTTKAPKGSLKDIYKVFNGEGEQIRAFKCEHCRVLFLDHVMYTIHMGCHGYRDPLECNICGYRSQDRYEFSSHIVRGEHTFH
Chain of Helios (IKZF2) (Q96SW2 whole entry): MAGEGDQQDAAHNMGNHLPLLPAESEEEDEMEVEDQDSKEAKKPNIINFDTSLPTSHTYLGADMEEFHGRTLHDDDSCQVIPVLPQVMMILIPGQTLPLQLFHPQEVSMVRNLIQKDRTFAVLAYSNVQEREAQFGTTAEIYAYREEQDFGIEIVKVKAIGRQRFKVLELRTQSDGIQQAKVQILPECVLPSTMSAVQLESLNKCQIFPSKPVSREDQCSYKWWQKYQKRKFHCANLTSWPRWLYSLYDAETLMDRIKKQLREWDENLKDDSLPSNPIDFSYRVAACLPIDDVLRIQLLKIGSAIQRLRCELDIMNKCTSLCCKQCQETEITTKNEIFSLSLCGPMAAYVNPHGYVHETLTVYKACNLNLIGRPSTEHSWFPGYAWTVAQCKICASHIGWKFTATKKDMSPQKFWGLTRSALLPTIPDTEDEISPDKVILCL
Chain of Helios (IKZF2) (Q16531 whole entry partner): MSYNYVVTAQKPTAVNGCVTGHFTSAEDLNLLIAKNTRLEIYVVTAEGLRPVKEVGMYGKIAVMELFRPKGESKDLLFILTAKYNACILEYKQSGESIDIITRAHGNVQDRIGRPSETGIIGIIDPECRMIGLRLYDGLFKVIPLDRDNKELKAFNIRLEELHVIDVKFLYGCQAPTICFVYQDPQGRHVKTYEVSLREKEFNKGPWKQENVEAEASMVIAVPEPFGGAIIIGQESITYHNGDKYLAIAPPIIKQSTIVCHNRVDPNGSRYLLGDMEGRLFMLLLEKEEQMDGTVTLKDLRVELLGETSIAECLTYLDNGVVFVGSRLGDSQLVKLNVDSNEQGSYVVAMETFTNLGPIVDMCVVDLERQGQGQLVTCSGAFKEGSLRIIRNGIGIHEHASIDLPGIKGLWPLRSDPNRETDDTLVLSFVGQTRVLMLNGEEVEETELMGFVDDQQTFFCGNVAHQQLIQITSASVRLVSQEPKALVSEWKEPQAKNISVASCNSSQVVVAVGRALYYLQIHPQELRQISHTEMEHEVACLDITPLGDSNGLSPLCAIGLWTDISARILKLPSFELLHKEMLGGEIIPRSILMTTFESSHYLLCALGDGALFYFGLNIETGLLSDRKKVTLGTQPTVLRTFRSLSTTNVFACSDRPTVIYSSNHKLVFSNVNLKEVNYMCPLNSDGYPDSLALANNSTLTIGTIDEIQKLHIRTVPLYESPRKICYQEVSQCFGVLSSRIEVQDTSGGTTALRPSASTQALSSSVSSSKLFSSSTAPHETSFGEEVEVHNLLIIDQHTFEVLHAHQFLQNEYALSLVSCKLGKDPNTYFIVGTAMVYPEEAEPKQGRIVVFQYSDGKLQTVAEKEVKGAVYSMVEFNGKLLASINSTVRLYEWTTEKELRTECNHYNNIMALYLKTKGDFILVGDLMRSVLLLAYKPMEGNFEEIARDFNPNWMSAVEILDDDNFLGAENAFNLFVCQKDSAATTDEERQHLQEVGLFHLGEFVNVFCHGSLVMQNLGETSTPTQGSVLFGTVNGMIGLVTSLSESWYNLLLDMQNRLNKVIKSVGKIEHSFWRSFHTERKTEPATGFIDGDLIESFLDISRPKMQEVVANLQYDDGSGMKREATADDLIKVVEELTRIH

SMILES | remaining activity at 10 µM [%] | remaining activity at 1 µM [%] | IKZF2 degradation activity (in words, comment on Table 1) (as shown in Table 1)
O=C1CCC(N2Cc3cc(C4CCN(C(=O)c5cc6cnc(Cl)cc6[nH]5)CC4)ccc3C2=O)C(=O)N1 (stereo not shown) [Compound 46, 3-(5-(1-(6-chloro-1H-picolo[3,2-c]pyridine-2-carbonyl)piperidin-4-yl)-1-oxoinsoindolin-2-yl)piperidine-2,6-dione] | 47.4 | 58.1 | 
O=C1CCC(N2Cc3cc(C4CC5CCC(C4)N5C(=O)c4cc5ccc(Cl)cc5[nH]4)ccc3C2=O)C(=O)N1 (stereo not shown) [Compound 57, 3-(5-(8-(6-chloro-1H-indole-2-carbonyl)-8-azabicyclo[3.2.1]octan-3-yl)-1-oxoinsoindolin-2-yl)piperidine-2,6-dione] | 64.5 |  | 
Cc1c(C(=O)N2CCC(c3ccc4c(c3)CN(C3CCC(=O)NC3=O)C4=O)CC2)[nH]c2ncccc12 (stereo not shown) [Compound 31, 3-(5-(1-(3-methyl-1H-picolo[2,3-b]pyridine-2-carbonyl)piperidin-4-yl)-1-oxoinsoindolin-2-yl)piperidine-2,6-dione] | 94.3 | 75 | 
O=C1CCC(N2Cc3cc(C4CCN(C(=O)c5cc6cc(F)ccc6[nH]5)CC4)ccc3C2=O)C(=O)N1 (stereo not shown) [Compound 17, 3-(5-(1-(5-fluoro-1H-indole-2-carbonyl)piperidin-4-yl)-1-oxoinsoindolin-2-yl)piperidine-2,6-dione] | 96.6 | 95 | 
O=C1CCC(N2Cc3cc(C=C4CCN(C(=O)c5cc6ccccc6[nH]5)CC4)ccc3C2=O)C(=O)N1 (stereo not shown) [Compound 24, 3-(5-((1-(1H-indole-2-carbonyl)piperidin-4-ylidene)methyl)-1-oxoinsoindolin-2-yl)piperidine-2,6-dione] | 88.2 | 93.7 | 
Nc1ccc2cc(C(=O)N3CCC(c4ccc5c(c4)CN(C4CCC(=O)NC4=O)C5=O)CC3)[nH]c2c1 (stereo not shown) [Compound 32, 3-(5-(1-(6-amino-1H-indole-2-carbonyl)piperidin-4-yl)-1-oxoinsoindolin-2-yl)piperidine-2,6-dione] | 57.3 | 62.1 | 
O=C1CCC(N2Cc3cc(C4CCN(C(=O)C5=Nc6cccc(Cl)c6C5)CC4)ccc3C2=O)C(=O)N1 (stereo not shown) [Compound 4, 3-(5-(1-(4-chloro-1H-indole-2-carbonyl)piperidin-4-yl)-1-oxoinsoindolin-2-yl)piperidine-2,6-dione] | 106 | 104 | 
N#Cc1c(C(=O)N2CCC(c3ccc4c(c3)CN(C3CCC(=O)NC3=O)C4=O)CC2)[nH]c2ccccc12 (stereo not shown) [Compound 51, 2-(4-(2-(2,6-dioxopiperidin-3-yl)-1-oxoindolin-5-yl)piperidine-1-carbonyl)-1H-indole-3-carbonitrile] | 76.6 |  | 
Cc1c(C(=O)N2CCC(c3ccc4c(c3)C(=O)N(C3CCC(=O)NC3=O)C4=O)CC2)[nH]c2cc(Cl)ccc12 (stereo not shown) [Compound 92, 5-(1-(6-chloro-3-methyl-1H-indole-2-carbonyl)piperidin-4-yl)-2-(2,6-dioxopiperidin-3-yl)isoindoline-1,3-dione] | 36.1 |  | 
Cc1ccc2cc(C(=O)N3CCC(c4ccc5c(c4)CN(C4CCC(=O)NC4=O)C5=O)CC3)[nH]c2c1 (stereo not shown) [Compound 15, 3-(5-(1-(6-methyl-1H-indole-2-carbonyl)piperidin-4-yl)-1-oxoinsoindolin-2-yl)piperidine-2,6-dione] | 73 | 66.9 | 
COc1ccc2cc(C(=O)N3CCC(c4ccc5c(c4)CN(C4CCC(=O)NC4=O)C5=O)CC3)[nH]c2c1 (stereo not shown) [Compound 5, 3-(5-(1-(6-methoxy-1H-indole-2-carbonyl)piperidin-4-yl)-1-oxoinsoindolin-2-yl)piperidine-2,6-dione] | 88.2 | 86.7 | 
Cc1cccc2cc(C(=O)N3CCC(c4ccc5c(c4)CN(C4CCC(=O)NC4=O)C5=O)CC3)[nH]c12 (stereo not shown) [Compound 16, 3-(5-(1-(7-methyl-1H-indole-2-carbonyl)piperidin-4-yl)-1-oxoinsoindolin-2-yl)piperidine-2,6-dione] | 80.4 | 78.5 | 
COc1cccc2[nH]c(C(=O)N3CCC(c4ccc5c(c4)CN(C4CCC(=O)NC4=O)C5=O)CC3)cc12 (stereo not shown) [Compound 11, 3-(5-(1-(4-methoxy-1H-indole-2-carbonyl)piperidin-4-yl)-1-oxoinsoindolin-2-yl)piperidine-2,6-dione] | 98 | 99.5 | 
O=C1CCC(N2Cc3cc(C4CCN(C(=O)c5cc6ccc(Cl)c(Cl)c6[nH]5)CC4)ccc3C2=O)C(=O)N1 (stereo not shown) [Compound 2, 3-(5-(1-(6,7-dichloro-1H-indole-2-carbonyl)piperidin-4-yl)-1-oxoinsoindolin-2-yl)piperidine-2,6-dione] | 92.1 | 78.3 | 
Cc1c(C(=O)N2CCC(n3cc(-c4ccc5c(c4)CN(C4CCC(=O)NC4=O)C5=O)nn3)CC2)[nH]c2cc(Cl)ccc12 (stereo not shown) [Compound 66, 3-(5-(1-(1-(6-chloro-3-methyl-1H-indole-2-carbonyl)piperidin-4-yl)-1H-1,2,3-triazol-4-yl)-1-oxoinsoindolin-2-yl)piperidine-2,6-dione] | 87.8 |  | 
COc1cc2cc(C(=O)N3CCC(c4ccc5c(c4)CN(C4CCC(=O)NC4=O)C5=O)CC3)[nH]c2cc1OC (stereo not shown) [Compound 40, 3-(5-(1-(5,6-dimethoxy-1H-indole-2-carbonyl)piperidin-4-yl)-1-oxoinsoindolin-2-yl)piperidine-2,6-dione] | 74.5 | 92.2 | 

Now from value to compound, other results behind:

remaining activity at 10 µM [%] | remaining activity at 1 µM [%] | SMILES | IKZF2 degradation activity (in words, comment on Table 1) (as shown in Table 1)
35 |  | Cc1c(C(=O)N2CCC(c3ccc4c(c3)CN(C3CCC(=O)NC3=O)C4=O)CC2)[nH]c2cc(N)ccc12 (stereo not shown) [Compound 61, 3-(5-(1-(6-amino-3-methyl-1H-indole-2-carbonyl)piperidin-4-yl)-1-oxoinsoindolin-2-yl)piperidine-2,6-dione] | 
31.3 |  | Cc1c(C(=O)N2CCC(c3ccc4c(c3)CN(C3CCC(=O)NC3=O)C4=O)CC2)[nH]c2cc(C(C)(C)C)ccc12 (stereo not shown) [Compound 56, 3-(5-(1-(6-(tert-butyl)-3-methyl-1H-indole-2-carbonyl)piperidin-4-yl)-1-oxoinsoindolin-2-yl)piperidine-2,6-dione] | 
58.2 | 70.3 | O=C1CCC(N2Cc3cc(C4CCN(C(=O)c5cc6ncc(Cl)cc6[nH]5)CC4)ccc3C2=O)C(=O)N1 (stereo not shown) [Compound 45, 3-(5-(1-(6-chloro-1H-picolo[3,2-b]pyridine-2-carbonyl)piperidin-4-yl)-1-oxoinsoindolin-2-yl)piperidine-2,6-dione] | 
26.8 |  | Cc1c(C(=O)N2CCC(c3ccc4c(c3)CN(C3CCC(=O)NC3=O)C4=O)CC2)[nH]c2cc(F)ccc12 (stereo not shown) [Compound 54, 3-(5-(1-(6-fluoro-3-methyl-1H-indole-2-carbonyl)piperidin-4-yl)-1-oxoinsoindolin-2-yl)piperidine-2,6-dione] | 
100 |  | O=C1CCC(N2Cc3cc(C4CCN(C(=O)c5nc6ccc(Cl)cc6[nH]5)CC4)ccc3C2=O)C(=O)N1 (stereo not shown) [Comparative Substance 3, 3-(5-(1-(6-chloro-1H-benzo[d]imidazole-2-carbonyl)piperidin-4-yl)-1-oxoinsoindolin-2-yl)piperidine-2,6-dione, reference compound] | no IKZF2 degradation activity was observed
34.3 | 43.3 | Cc1c(C(=O)N2CCC(c3ccc4c(c3)CN(C3CCC(=O)NC3=O)C4=O)CC2)[nH]c2cc(Cl)c(Cl)cc12 (stereo not shown) [Compound 72, 3-(5-(1-(5,6-dichloro-3-methyl-1H-indole-2-carbonyl)piperidin-4-yl)-1-oxoinsoindolin-2-yl)piperidine-2,6-dione] | 
28.7 |  | O=Cc1c(C(=O)N2CCC(c3ccc4c(c3)CN(C3CCC(=O)NC3=O)C4=O)CC2)[nH]c2cc(Cl)ccc12 (stereo not shown) [Compound 81, 6-chloro-2-(4-(2-(2,6-dioxopiperidin-3-yl)-1-oxoindolin-5-yl)piperidine-1-carbonyl)-1H-indole-3-carbaldehyde] | 
106 | 102 | O=C1CCC(N2Cc3cc(C4CCN(C(=O)c5cc6cc(Cl)ccc6[nH]5)CC4)ccc3C2=O)C(=O)N1 (stereo not shown) [Compound 3, 3-(5-(1-(5-chloro-1H-indole-2-carbonyl)piperidin-4-yl)-1-oxoinsoindolin-2-yl)piperidine-2,6-dione] | 
41.8 | 22 | Cc1ccc2c(C)c(C(=O)N3CCC(c4ccc5c(c4)CN(C4CCC(=O)NC4=O)C5=O)CC3)[nH]c2c1 (stereo not shown) [Compound 69, 3-(5-(1-(3,6-dimethyl-1H-indole-2-carbonyl)piperidin-4-yl)-1-oxoinsoindolin-2-yl)piperidine-2,6-dione] | 
20.6 | 26.8 | Cc1cc2c(C)c(C(=O)N3CCC(c4ccc5c(c4)CN(C4CCC(=O)NC4=O)C5=O)CC3)[nH]c2cc1Cl (stereo not shown) [Compound 103, 3-(5-(1-(6-chloro-3,5-dimethyl-1H-indole-2-carbonyl)piperidin-4-yl)-1-oxoinsoindolin-2-yl)piperidine-2,6-dione] | 
37.3 | 37 | Cc1c(C(=O)N2CCC(c3ccc4c(c3)CN(C3CCC(=O)NC3=O)C4=O)CC2)[nH]c2ccccc12 (stereo not shown) [Compound 21, 3-(5-(1-(3-methyl-1H-indole-2-carbonyl)piperidin-4-yl)-1-oxoinsoindolin-2-yl)piperidine-2,6-dione] | 
